Laboratory results: article PMC11071220, “Identification and characterization of a new potent inhibitor targeting CtBP1/BARS in melanoma cells” (Journal of Experimental & Clinical Cancer Research : CR, 2024)

Legend:
CtBP1/BARS [1] = target: T1, CtBP1/BARS (Rattus norvegicus, UniProt Q9Z2F5); experiment: ITC; also tryptophan fluorescence quenching (Kd […]); format: binding; design: His-CtBP1/BARS wt, full-length (CtBP1-S/BARS)
CtBP1/BARS [2] = target: T1, CtBP1/BARS; experiment: size-exclusion chromatography (dimer to tetramer shift, […] NAD+); pull-down of self-association; format: biochemical

Kd (CtBP1/BARS [1]) [nM] | SMILES | size-exclusion chromatography (dimer to tetramer shift, 100 μM NAD+); pull-down (CtBP1/BARS [2])
660 ± 200 | O=C(Nc1ccc([N+](=O)[O-])cc1)Nc1ccc(S(=O)(=O)Nc2ccc(Cl)c(Cl)c2)cc1 [Comp.11, N-(3,4-dichlorophenyl)-4-{[(4-nitrophenyl)carbamoyl]amino}benzenesulfonamide] | –
– | NC(=O)c1ccc[n+]([C@@H]2O[C@H](COP(=O)([O-])OP(=O)(O)OC[C@H]3O[C@@H](n4cnc5c(N)ncnc54)[C@H](O)[C@@H]3O)[C@@H](O)[C@H]2O)c1 [NAD+] | The addition of NAD^+ shifts the elution patterns so that the majority of CtBP1/BARS elutes as a tetramer
